Test results: patent US6106822A, “Hormone and growth factor phosphoglycokine mimetics from mycobacterium” (University College of London, priority 1995, dated 2000)

How the values were obtained:
[1] = infusion; normal rats given a glucose load or streptozotocin-treated rats; cited from earlier work
[2] = tested on: isolated adipocytes; assay: lipogenesis assay (incorporation of labelled glucose into lipids of isolated adipocytes); type: cell-based, rat; settings: 10 μl of stock solution in final volume of 1.25 ml
Procedure: The activation of lipogenesis is monitored by measuring the incorporation of uniformly labelled glucose into lipids of isolated adipocytes as described by Rodbell in J. Biol. Chem. (1964) 239, 375-380.
For the lipogenesis assay, 10 μl of the stock solution is added to a final volume of 1.25 ml.

Molecule: OC1C(O)C(O)C(O)C(O)C1O (stereo not drawn) [chiro-inositol]
- activity of glycogen synthase I [1]: enhanced activity of glycogen synthase I
- plasma glucose [1]: decreased plasma glucose

Molecule: Insulin
- Lipogensis (% stimulation) [2]: 273%
